What follows are molecules tested against human GluN1/GluN2B NMDA receptors (Homo sapiens, UniProt Q05586+Q13224) (assay: Cell-based calcium flux (FLIPR) assay on cloned human NR1/NR2B ion channels expressed in mammalian cells). Details: standard assay; human GluN1/GluN2B, calcium flux (FLIPR), glutamate ~EC80.
Chain of human GluN1/GluN2B NMDA receptors (Q13224 27-1484, other chains not shown): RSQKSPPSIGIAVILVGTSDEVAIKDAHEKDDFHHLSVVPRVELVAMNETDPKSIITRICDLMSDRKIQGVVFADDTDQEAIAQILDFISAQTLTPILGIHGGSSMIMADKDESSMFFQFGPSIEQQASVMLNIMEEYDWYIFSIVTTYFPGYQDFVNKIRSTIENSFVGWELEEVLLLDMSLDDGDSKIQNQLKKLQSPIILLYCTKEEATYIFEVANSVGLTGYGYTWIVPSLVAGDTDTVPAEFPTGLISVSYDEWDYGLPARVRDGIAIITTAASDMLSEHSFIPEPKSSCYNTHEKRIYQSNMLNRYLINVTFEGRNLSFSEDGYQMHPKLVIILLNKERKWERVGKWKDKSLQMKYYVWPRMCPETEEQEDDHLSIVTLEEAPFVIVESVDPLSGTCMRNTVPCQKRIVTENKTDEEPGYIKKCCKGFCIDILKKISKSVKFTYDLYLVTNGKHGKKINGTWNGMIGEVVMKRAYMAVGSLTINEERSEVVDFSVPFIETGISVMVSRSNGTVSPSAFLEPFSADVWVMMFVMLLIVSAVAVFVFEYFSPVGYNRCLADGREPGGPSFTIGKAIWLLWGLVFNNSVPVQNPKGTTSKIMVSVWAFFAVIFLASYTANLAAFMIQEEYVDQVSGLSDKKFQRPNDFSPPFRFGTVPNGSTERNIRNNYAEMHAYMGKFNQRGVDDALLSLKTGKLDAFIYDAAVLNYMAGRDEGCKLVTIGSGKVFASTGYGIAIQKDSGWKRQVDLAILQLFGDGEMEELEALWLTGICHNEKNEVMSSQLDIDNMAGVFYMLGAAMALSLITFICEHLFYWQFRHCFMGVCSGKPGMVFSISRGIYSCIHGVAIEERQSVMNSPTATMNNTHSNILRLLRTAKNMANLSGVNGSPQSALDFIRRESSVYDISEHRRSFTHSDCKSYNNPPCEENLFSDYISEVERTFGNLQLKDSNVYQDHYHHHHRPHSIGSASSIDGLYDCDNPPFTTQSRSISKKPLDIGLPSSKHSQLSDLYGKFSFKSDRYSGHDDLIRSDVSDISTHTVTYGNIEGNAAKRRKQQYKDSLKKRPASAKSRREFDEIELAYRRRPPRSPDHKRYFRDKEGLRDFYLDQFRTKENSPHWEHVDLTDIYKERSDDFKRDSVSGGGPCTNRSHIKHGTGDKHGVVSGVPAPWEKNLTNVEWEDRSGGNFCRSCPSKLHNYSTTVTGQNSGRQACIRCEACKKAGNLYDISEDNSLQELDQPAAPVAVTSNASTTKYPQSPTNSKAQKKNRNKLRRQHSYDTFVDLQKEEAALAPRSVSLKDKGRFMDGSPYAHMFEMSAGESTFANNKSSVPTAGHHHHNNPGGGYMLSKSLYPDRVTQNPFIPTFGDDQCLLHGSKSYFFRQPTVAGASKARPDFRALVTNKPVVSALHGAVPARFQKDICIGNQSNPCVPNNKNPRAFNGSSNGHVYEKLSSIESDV
Summary of the method: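 Calcium influx followed by FLIPR fluorescence after 5 min compound exposure and a further 5 min co-agonist challenge: 10 μM glycine with glutamate at ~EC80 (standard) or EC40 (HTS).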
Work on CCc1cnc(OCc2cn(-c3cccc(C(C)C)c3)nn2)nc1 [Example 267, 5-Ethyl-2-[[1-(3-isopropylphenyl)triazol-4-yl]methoxy]pyrimidine] yielded an IC50 of 0.012 µM.
Work on Cc1ccnc(OCc2cn(-c3cccc(C(F)F)c3)nn2)n1 [Example 268, 2-[[1-[3-(Difluoromethyl)phenyl]triazol-4-yl]methoxy]-4-methyl-pyrimidine] yielded an IC50 of 0.134 µM.
In the case of Fc1cnc(OCc2cn(-c3cccc(C(F)F)c3)nn2)nc1 [Example 269, 2-[[1-[3-(Difluoromethyl)phenyl]triazol-4-yl]methoxy]-5-fluoro-pyrimidine], the IC50 is reported as 0.325 µM.
With CC(C)c1ccnc(OCc2cn(-c3cccc(C(F)F)c3)nn2)n1 [Example 270] the IC50 was 0.617 µM.
With COCc1ccnc(OCc2cn(-c3cccc(C(F)F)c3)nn2)n1 [Example 271] the IC50 was 0.36 µM.
CC(C)(O)c1cnc(OCc2cn(-c3cccc(C(F)F)c3)nn2)nc1 [Example 272, 2-[2-[[1-[3-(Difluoromethyl)phenyl]triazol-4-yl]methoxy]pyrimidin-5-yl]propan-2-ol] was tested, and the IC50 was 0.173 µM.
FC(F)c1cnc(OCc2cn(-c3cccc(C(F)F)c3)nn2)nc1 [Example 273, 5-(Difluoromethyl)-2-[[1-[3-(difluoromethyl)phenyl]triazol-4-yl]methoxy]pyrimidine] showed an IC50 of 0.027 µM.
FC(F)c1cccc(-n2cc(COc3nccc(C(F)F)n3)nn2)c1 [Example 274, 4-(Difluoromethyl)-2-[[1-[3-(difluoromethyl)phenyl]triazol-4-yl]methoxy]pyrimidine] showed an IC50 of 0.813 µM.
Work on FC(F)c1cccc(-n2cc(COc3ncc(C(F)(F)F)cn3)nn2)c1 [Example 275, 2-[[1-[3-(Difluoromethyl)phenyl]triazol-4-yl]methoxy]-5-(trifluoromethyl)pyrimidine] yielded an IC50 of 0.025 µM.
With FC(F)Oc1cnc(OCc2cn(-c3cccc(C(F)F)c3)nn2)nc1 [Example 276, 5-(Difluoromethoxy)-2-[[1-[3-(difluoromethyl)phenyl]triazol-4-yl]methoxy]pyrimidine] the IC50 was 0.031 µM.
CN(C)c1ccnc(OCc2cn(-c3cccc(C(F)F)c3)nn2)n1 [Example 277, 2-[[1-[3-(Difluoromethyl)phenyl]triazol-4-yl]methoxy]-N,N-dimethyl-pyrimidin-4-amine] gave an IC50 of 0.041 µM.
Cc1nc(OCc2cn(-c3cccc(C(F)F)c3)nn2)ncc1F [Example 278, 2-[[1-[3-(Difluoromethyl)phenyl]triazol-4-yl]methoxy]-5-fluoro-4-methyl-pyrimidine] gave an IC50 of 0.042 µM.
In the case of Cc1nc(OCc2cn(-c3cccc(C(F)F)c3)nn2)ncc1Cl [Example 279, 5-Chloro-2-[[1-[3-(difluoromethyl)phenyl]triazol-4-yl]methoxy]-4-methyl-pyrimidine], the IC50 is reported as 0.003 µM.
Cc1cnc(Cl)nc1OCc1cn(-c2cccc(C(F)F)c2)nn1 [Example 280, 2-Chloro-4-[[1-[3-(difluoromethyl)phenyl]triazol-4-yl]methoxy]-5-methyl-pyrimidine] gave an IC50 of 0.173 µM.
Cc1cnc(OCc2cn(-c3cccc(C(F)F)c3)nn2)nc1N(C)C [Example 281, 2-[[1-[3-(Difluoromethyl)phenyl]triazol-4-yl]methoxy]-N,N,5-trimethyl-pyrimidin-4-amine] showed an IC50 of 0.13 µM.
Work on FC(F)c1cccc(-n2cc(COc3ncc(C4CC4)cn3)nn2)c1 [Example 282, 5-Cyclopropyl-2-[[1-[3-(difluoromethyl)phenyl]triazol-4-yl]methoxy]pyrimidine] yielded an IC50 of 0.011 µM.
In the case of FC(F)c1cccc(-n2cc(COc3nccc(C4CC4)n3)nn2)c1 [Example 283, 4-Cyclopropyl-2-[[1-[3-(difluoromethyl)phenyl]triazol-4-yl]methoxy]pyrimidine], the IC50 is reported as 0.169 µM.
FC(F)c1cccc(-n2cc(COc3nccc(N4CCCC4)n3)nn2)c1 [Example 284, 2-[[1-[3-(Difluoromethyl)phenyl]triazol-4-yl]methoxy]-4-pyrrolidin-1-yl-pyrimidine] was tested, and the IC50 was 0.094 µM.
FC(F)c1cccc(-n2cc(COc3nccc(N4CCCCC4)n3)nn2)c1 [Example 285, 2-[[1-[3-(Difluoromethyl)phenyl]triazol-4-yl]methoxy]-4-(1-piperidyl)pyrimidine] gave an IC50 of 0.299 µM.
Cc1cnc(OCc2cn(-c3cccc(C(F)(F)F)c3)nn2)nc1 [Example 286, 5-Methyl-2-[[1-[3-(trifluoromethyl)phenyl]triazol-4-yl]methoxy]pyrimidine] showed an IC50 of 0.012 µM.
Molecule CCc1cnc(OCc2cn(-c3cccc(C(F)(F)F)c3)nn2)nc1 [Example 287, 5-Ethyl-2-[[1-[3-(trifluoromethyl)phenyl]triazol-4-yl]methoxy]pyrimidine] has an IC50 of 0.005 µM.
In the case of CC(C)c1cnc(OCc2cn(-c3cccc(C(F)(F)F)c3)nn2)nc1 [Example 288, 5-Isopropyl-2-[[1-[3-(trifluoromethyl)phenyl]triazol-4-yl]methoxy]pyrimidine], the IC50 is reported as 0.04 µM.
FC(F)c1cnc(OCc2cn(-c3cccc(C(F)(F)F)c3)nn2)nc1 [Example 289, 5-(Difluoromethyl)-2-[[1-[3-(trifluoromethyl)phenyl]triazol-4-yl]methoxy]pyrimidine] showed an IC50 of 0.037 µM.
With Cc1cnc(OCc2cn(-c3cccc(C(F)(F)F)c3)nn2)nc1C [Example 290, 4,5-Dimethyl-2-[[1-[3-(trifluoromethyl)phenyl]triazol-4-yl]methoxy]pyrimidine] the IC50 was 0.007 µM.
In the case of Cc1nc(OCc2cn(-c3cccc(C(F)(F)F)c3)nn2)ncc1Cl [Example 291, 5-Chloro-4-methyl-2-[[1-[3-(trifluoromethyl)phenyl]triazol-4-yl]methoxy]pyrimidine], the IC50 is reported as 0.009 µM.
With CC(F)(F)c1cccc(-n2cc(COc3ncccn3)nn2)c1 [Example 292, 2-[[1-[3-(1,1-Difluoroethyl)phenyl]triazol-4-yl]methoxy]pyrimidine] the IC50 was 0.105 µM.
In the case of CC(F)(F)c1cccc(-n2cc(COc3ncc(Br)cn3)nn2)c1 [Example 293, 5-Bromo-2-[[1-[3-(1,1-difluoroethyl)phenyl]triazol-4-yl]methoxy]pyrimidine], the IC50 is reported as 0.039 µM.
Molecule CC(F)(F)c1cccc(-n2cc(COc3ncc(Cl)cn3)nn2)c1 [Example 294, 5-Chloro-2-[[1-[3-(1,1-difluoroethyl)phenyl]triazol-4-yl]methoxy]pyrimidine] has an IC50 of 0.003 µM.
Work on CC(F)(F)c1cccc(-n2cc(COc3ncc(F)cn3)nn2)c1 [Example 295, 2-[[1-[3-(1,1-Difluoroethyl)phenyl]triazol-4-yl]methoxy]-5-fluoro-pyrimidine] yielded an IC50 of 0.061 µM.
Work on Cc1ccnc(OCc2cn(-c3cccc(C(C)(F)F)c3)nn2)n1 [Example 296, 2-[[1-[3-(1,1-Difluoroethyl)phenyl]triazol-4-yl]methoxy]-4-methyl-pyrimidine] yielded an IC50 of 0.012 µM.
For Cc1cnc(OCc2cn(-c3cccc(C(C)(F)F)c3)nn2)nc1 [Example 297, 2-[[1-[3-(1,1-Difluoroethyl)phenyl]triazol-4-yl]methoxy]-5-methyl-pyrimidine], the IC50 was 0.005 µM.
In the case of CC(F)(F)c1cccc(-n2cc(COc3ncc(CO)cn3)nn2)c1 [Example 298, [2-[[1-[3-(1,1-Difluoroethyl)phenyl]triazol-4-yl]methoxy]pyrimidin-5-yl]methanol], the IC50 is reported as 0.034 µM.
Molecule CC(F)(F)c1cccc(-n2cc(COc3nccc(CO)n3)nn2)c1 [Example 299, [2-[[1-[3-(1,1-Difluoroethyl)phenyl]triazol-4-yl]methoxy]pyrimidin-4-yl]methanol] has an IC50 of 0.049 µM.
COCc1ccnc(OCc2cn(-c3cccc(C(C)(F)F)c3)nn2)n1 [Example 300, 2-[[1-[3-(1,1-Difluoroethyl)phenyl]triazol-4-yl]methoxy]-4-(methoxymethyl)pyrimidine] was tested, and the IC50 was 0.008 µM.
In the case of CC(C)(O)c1cnc(OCc2cn(-c3cccc(C(C)(F)F)c3)nn2)nc1 [Example 301, 2-[2-[[1-[3-(1,1-Difluoroethyl)phenyl]triazol-4-yl]methoxy]pyrimidin-5-yl]propan-2-ol], the IC50 is reported as 0.119 µM.
With CC(F)(F)c1cccc(-n2cc(COc3ncc(C(F)F)cn3)nn2)c1 [Example 302, 2-[[1-[3-(1,1-Difluoroethyl)phenyl]triazol-4-yl]methoxy]-5-(difluoromethyl)pyrimidine] the IC50 was 0.002 µM.
For CC(F)(F)c1cccc(-n2cc(COc3nccc(C(F)F)n3)nn2)c1 [Example 303, 2-[[1-[3-(1,1-Difluoroethyl)phenyl]triazol-4-yl]methoxy]-4-(difluoromethyl)pyrimidine], the IC50 was 0.085 µM.
CC(F)(F)c1cccc(-n2cc(COc3nccc(C(F)(F)F)n3)nn2)c1 [Example 304, 2-[[1-[3-(1,1-Difluoroethyl)phenyl]triazol-4-yl]methoxy]-4-(trifluoromethyl)pyrimidine] gave an IC50 of 0.711 µM.
For COc1cnc(OCc2cn(-c3cccc(C(C)(F)F)c3)nn2)nc1 [Example 306, 2-[[1-[3-(1,1-Difluoroethyl)phenyl]triazol-4-yl]methoxy]-5-methoxy-pyrimidine], the IC50 was 0.003 µM.
Molecule COc1ccnc(OCc2cn(-c3cccc(C(C)(F)F)c3)nn2)n1 [Example 307, 2-[[1-[3-(1,1-Difluoroethyl)phenyl]triazol-4-yl]methoxy]-4-methoxy-pyrimidine] has an IC50 of 0.033 µM.
With CC(F)(F)c1cccc(-n2cc(COc3ncc(OC(F)F)cn3)nn2)c1 [Example 308, 2-[[1-[3-(1,1-Difluoroethyl)phenyl]triazol-4-yl]methoxy]-5-(difluoromethoxy)pyrimidine] the IC50 was 0.003 µM.
With CC(=O)c1cnc(OCc2cn(-c3cccc(C(C)(F)F)c3)nn2)nc1 [Example 309, 1-[2-[[1-[3-(1,1-Difluoroethyl)phenyl]triazol-4-yl]methoxy]pyrimidin-5-yl]ethanone] the IC50 was 0.01 µM.
Cc1nc(OCc2cn(-c3cccc(C(C)(F)F)c3)nn2)ncc1Cl [Example 312, 5-Chloro-2-[[1-[3-(1,1-difluoroethyl)phenyl]triazol-4-yl]methoxy]-4-methyl-pyrimidine] was tested, and the IC50 was 0.004 µM.
In the case of Cc1nc(OCc2cn(-c3cccc(C(C)(F)F)c3)nn2)ncc1F [Example 313, 2-[[1-[3-(1,1-Difluoroethyl)phenyl]triazol-4-yl]methoxy]-5-fluoro-4-methyl-pyrimidine], the IC50 is reported as 0.005 µM.
